# Measurements from ChEMBL document CHEMBL1817541, “Synthesis and Evaluation of the α-D-/α-L-Rhamnosyl and Amicetosyl Digitoxigenin Oligomers as Anti-tumor Agents” (ACS Med Chem Lett, 2011).
# Tests used:
# Type in all cases: functional
# 786-0 = assay: Cytotoxicity against human 786-0 cells after 48 hrs by sulforhodamine B assay; conditions: 786-0, 48 h
# M14 = assay: Cytotoxicity against human M14 cells after 48 hrs by sulforhodamine B assay; conditions: M14, 48 h
# SNB-75 = assay: Cytotoxicity against human SNB75 cells after 48 hrs by sulforhodamine B assay; conditions: SNB-75, 48 h
# HOP-62 = assay: Cytotoxicity against human HOP62 cells after 48 hrs by sulforhodamine B assay; conditions: HOP-62, 48 h
# SN12C = assay: Cytotoxicity against human SN12C cells after 48 hrs by sulforhodamine B assay
# UACC-257 = assay: Cytotoxicity against human UACC257 cells after 48 hrs by sulforhodamine B assay; conditions: UACC-257, 48 h
# SF-295 = assay: Cytotoxicity against human SF295 cells after 48 hrs by sulforhodamine B assay; conditions: SF-295, 48 h
# SNB-19 = assay: Cytotoxicity against human SNB19 cells after 48 hrs by sulforhodamine B assay; conditions: SNB-19, 48 h
# SK-OV-3 = assay: Cytotoxicity against human SKOV3 cells after 48 hrs by sulforhodamine B assay; conditions: SK-OV-3, 48 h
# NCI-H460 [1] = assay: Cytotoxicity against human NCI-H460 cells in serum free medium assessed as cell death at 10 uM after 12 hrs by Hoechst 33342/propidium iodide staining based fluorescence microscopy
# MOLT-4 = assay: Cytotoxicity against human MOLT4 cells after 48 hrs by sulforhodamine B assay; conditions: MOLT-4, 48 h
# NCI-H23 = assay: Cytotoxicity against human NCI-H23 cells after 48 hrs by sulforhodamine B assay; conditions: NCI-H23, 48 h
# COLO 205 = assay: Cytotoxicity against human COLO205 cells after 48 hrs by sulforhodamine B assay; conditions: COLO 205, 48 h
# RPMI-8226 = assay: Cytotoxicity against human RPMI8226 cells after 48 hrs by sulforhodamine B assay; conditions: RPMI-8226, 48 h
# OVCAR-8 = assay: Cytotoxicity against human OVCAR8 cells after 48 hrs by sulforhodamine B assay; conditions: OVCAR-8, 48 h
# DU-145 = assay: Cytotoxicity against human DU145 cells after 48 hrs by sulforhodamine B assay; conditions: DU-145, 48 h
# SW-620 = assay: Cytotoxicity against human SW620 cells after 48 hrs by sulforhodamine B assay; conditions: SW-620, 48 h
# HT-29 = assay: Cytotoxicity against human HT-29 cells after 48 hrs by sulforhodamine B assay; conditions: HT-29, 48 h
# A549 = assay: Cytotoxicity against human A549 cells after 48 hrs by sulforhodamine B assay; conditions: A549, 48 h
# T47D = assay: Cytotoxicity against human T47D cells after 48 hrs by sulforhodamine B assay
# KM12 = assay: Cytotoxicity against human KM12 cells after 48 hrs by sulforhodamine B assay; conditions: KM12, 48 h
# TK-10 = assay: Cytotoxicity against human TK10 cells after 48 hrs by sulforhodamine B assay; conditions: TK-10, 48 h
# NCI-H460 [2] = assay: Cytotoxicity against human NCI-H460 cell assessed as cell death after 12 hrs by Hoechst 33342/propidium iodide staining based fluorescence microscopy; conditions: NCI-H460, 12 h
# HOP-92 = assay: Cytotoxicity against human HOP92 cells after 48 hrs by sulforhodamine B assay; conditions: HOP-92, 48 h
# A498 = assay: Cytotoxicity against human A498 cells after 48 hrs by sulforhodamine B assay; conditions: A498, 48 h
# NCI-H460 [3] = assay: Cytotoxicity against human NCI-H460 cell assessed as cell death at 500 nM after 12 hrs by Hoechst 33342/propidium iodide staining based fluorescence microscopy
# SF-539 = assay: Cytotoxicity against human SF539 cells after 48 hrs by sulforhodamine B assay; conditions: SF-539, 48 h
# Hs-578T = assay: Cytotoxicity against human Hs578T cells after 48 hrs by sulforhodamine B assay
# OVCAR-3 = assay: Cytotoxicity against human OVCAR3 cells after 48 hrs by sulforhodamine B assay; conditions: OVCAR-3, 48 h
# SK-MEL-28 = assay: Cytotoxicity against human SK-MEL-28 cells after 48 hrs by sulforhodamine B assay; conditions: SK-MEL-28, 48 h
# NCI-H460 [4] = assay: Cytotoxicity against human NCI-H460 cell assessed as cell death at 1 uM after 12 hrs by Hoechst 33342/propidium iodide staining based fluorescence microscopy
# NCI-H522 = assay: Cytotoxicity against human NCI-H522 cells after 48 hrs by sulforhodamine B assay; conditions: NCI-H522, 48 h
# HCT-15 = assay: Cytotoxicity against human HCT15 cells after 48 hrs by sulforhodamine B assay; conditions: HCT-15, 48 h
# SF-268 = assay: Cytotoxicity against human SF268 cells after 48 hrs by sulforhodamine B assay; conditions: SF-268, 48 h
# ACHN = assay: Cytotoxicity against human ACHN cells after 48 hrs by sulforhodamine B assay
# UACC-62 = assay: Cytotoxicity against human UACC62 cells after 48 hrs by sulforhodamine B assay; conditions: UACC-62, 48 h
# NCI-H460 [5] = assay: Cytotoxicity against human NCI-H460 cell assessed as cell death at 10 nM after 12 hrs by Hoechst 33342/propidium iodide staining based fluorescence microscopy
# SR = assay: Cytotoxicity against human SR cells after 48 hrs by sulforhodamine B assay
# NCI-H460 [6] = assay: Cytotoxicity against human NCI-H460 cell assessed as cell death at 100 nM after 12 hrs by Hoechst 33342/propidium iodide staining based fluorescence microscopy
# PC-3 = assay: Cytotoxicity against human PC3 cells after 48 hrs by sulforhodamine B assay; conditions: PC-3, 48 h
# EKVX = assay: Cytotoxicity against human EKVX cells after 48 hrs by sulforhodamine B assay
# Malme-3M = assay: Cytotoxicity against human MALME-3M cells after 48 hrs by sulforhodamine B assay
# NCI-H460 [7] = assay: Cytotoxicity against human NCI-H460 cells after 48 hrs by sulforhodamine B assay; conditions: NCI-H460, 48 h
# MDA-MB-435 = assay: Cytotoxicity against human MDA-MB-435 cells after 48 hrs by sulforhodamine B assay; conditions: MDA-MB-435, 48 h
# NCI-H460 [8] = assay: Cytotoxicity against human NCI-H460 cell assessed as cell death at 50 nM after 12 hrs by Hoechst 33342/propidium iodide staining based fluorescence microscopy
# UO-31 = assay: Cytotoxicity against human UO31 cells after 48 hrs by sulforhodamine B assay; conditions: UO-31, 48 h
# NCI-H460 [9] = assay: Induction of apoptosis in human NCI-H460 cells in at 50 nM after 12 hrs by Hoechst 33342/propidium iodide staining based fluorescence microscopy
# NCI-H460 [10] = assay: Cytotoxicity against human NCI-H460 cell assessed as cell death at 100 uM after 12 hrs by Hoechst 33342/propidium iodide staining based fluorescence microscopy
# MDA-MB-231 = assay: Cytotoxicity against human MDA-MB-231 cells after 48 hrs by sulforhodamine B assay; conditions: MDA-MB-231, 48 h
# LOX IMVI = assay: Cytotoxicity against human LOXIMVI cells after 48 hrs by sulforhodamine B assay
# OVCAR-4 = assay: Cytotoxicity against human OVCAR4 cells after 48 hrs by sulforhodamine B assay; conditions: OVCAR-4, 48 h
# MCF7 = assay: Cytotoxicity against human MCF7 cells after 48 hrs by sulforhodamine B assay; conditions: MCF7, 48 h
# NCI-H322M = assay: Cytotoxicity against human NCI-H322M cells after 48 hrs by sulforhodamine B assay
# NCI-H226 = assay: Cytotoxicity against human NCI-H226 cells after 48 hrs by sulforhodamine B assay; conditions: NCI-H226, 48 h
# U-251 = assay: Cytotoxicity against human U251 cells after 48 hrs by sulforhodamine B assay; conditions: U-251, 48 h
# SK-MEL-5 = assay: Cytotoxicity against human SK-MEL-5 cells after 48 hrs by sulforhodamine B assay; conditions: SK-MEL-5, 48 h
compound,measurement,setting,value
C[C@H]1O[C@H](O[C@H]2CC[C@@]3(C)[C@H](CC[C@@H]4[C@@H]3CC[C@]3(C)[C@@H](C5=CC(=O)OC5)CC[C@]43O)C2)CC[C@@H]1O,GI50,786-0,0.0582 µM
same,GI50,M14,0.156 µM
same,GI50,SNB-75,0.099 µM
same,GI50,HOP-62,0.0564 µM
same,GI50,SN12C,0.0409 µM
same,GI50,UACC-257,0.157 µM
same,GI50,SF-295,0.0716 µM
same,GI50,SNB-19,0.315 µM
same,GI50,SK-OV-3,0.194 µM
same,Activity,NCI-H460 [1],100%
same,GI50,MOLT-4,0.0353 µM
same,GI50,NCI-H23,0.0427 µM
same,GI50,COLO 205,0.348 µM
same,GI50,RPMI-8226,0.117 µM
same,GI50,OVCAR-8,0.0767 µM
same,GI50,DU-145,0.0305 µM
same,GI50,SW-620,0.0526 µM
same,GI50,HT-29,0.097 µM
same,GI50,A549,0.0306 µM
same,GI50,T47D,0.409 µM
same,GI50,KM12,0.228 µM
same,GI50,TK-10,0.0463 µM
same,IC50,NCI-H460 [2],0.387 µM
same,GI50,HOP-92,0.128 µM
same,GI50,A498,0.131 µM
same,Activity,NCI-H460 [3],58.34%
same,GI50,SF-539,0.0438 µM
same,GI50,Hs-578T,0.0261 µM
same,GI50,OVCAR-3,0.0478 µM
same,GI50,SK-MEL-28,0.186 µM
same,Activity,NCI-H460 [4],89.05%
same,GI50,NCI-H522,0.0408 µM
same,GI50,HCT-15,0.116 µM
same,GI50,SF-268,0.0378 µM
same,GI50,ACHN,0.0348 µM
same,GI50,UACC-62,0.168 µM
same,Activity,NCI-H460 [5],16.63%
same,GI50,SR,0.0795 µM
same,Activity,NCI-H460 [6],24.88%
same,GI50,PC-3,0.101 µM
same,GI50,EKVX,0.0621 µM
same,GI50,Malme-3M,0.182 µM
same,GI50,NCI-H460 [7],0.0351 µM
same,GI50,MDA-MB-435,0.115 µM
same,Activity,NCI-H460 [8],19.63%
same,GI50,UO-31,0.057 µM
same,Activity,NCI-H460 [9],15.33%
same,Activity,NCI-H460 [10],100%
same,GI50,MDA-MB-231,0.392 µM
same,GI50,LOX IMVI,0.0606 µM
same,GI50,OVCAR-4,0.191 µM
same,GI50,MCF7,0.0793 µM
same,GI50,NCI-H322M,0.106 µM
same,GI50,NCI-H226,0.168 µM
same,GI50,U-251,0.0353 µM
same,GI50,SK-MEL-5,0.0371 µM
C[C@@H]1O[C@@H](O[C@H]2CC[C@@]3(C)[C@H](CC[C@@H]4[C@@H]3CC[C@]3(C)[C@@H](C5=CC(=O)OC5)CC[C@]43O)C2)CC[C@H]1O [RAMNODIGIN],GI50,786-0,0.00621 µM
same,GI50,M14,0.0193 µM
same,GI50,SNB-75,0.0149 µM
same,GI50,HOP-62,0.00855 µM
same,GI50,SN12C,0.00361 µM
same,GI50,UACC-257,0.0196 µM
same,GI50,SF-295,0.0104 µM
same,GI50,SNB-19,0.0375 µM
same,GI50,SK-OV-3,0.0222 µM
same,Activity,NCI-H460 [1],100%
same,GI50,MOLT-4,0.00257 µM
same,GI50,NCI-H23,0.00413 µM
same,GI50,COLO 205,0.0296 µM
same,GI50,RPMI-8226,0.0235 µM
same,GI50,OVCAR-8,0.0025 µM
same,GI50,DU-145,0.00345 µM
same,GI50,SW-620,0.0111 µM
same,GI50,HT-29,0.0119 µM
same,GI50,A549,0.00156 µM
same,GI50,T47D,0.021 µM
same,GI50,KM12,0.0324 µM
same,GI50,TK-10,0.00375 µM
same,IC50,NCI-H460 [2],0.048 µM
same,GI50,HOP-92,0.0113 µM
same,GI50,A498,0.0207 µM
same,Activity,NCI-H460 [3],100%
same,GI50,SF-539,0.0078 µM
same,GI50,Hs-578T,0.00457 µM
same,GI50,OVCAR-3,0.00494 µM
same,GI50,SK-MEL-28,0.0231 µM
same,Activity,NCI-H460 [4],100%
same,GI50,NCI-H522,0.00938 µM
same,GI50,HCT-15,0.0205 µM
same,GI50,SF-268,0.00428 µM
same,GI50,ACHN,0.00431 µM
same,GI50,UACC-62,0.0127 µM
same,Activity,NCI-H460 [5],15.1%
same,GI50,SR,0.00225 µM
same,Activity,NCI-H460 [6],87.28%
same,GI50,PC-3,0.00955 µM
same,GI50,EKVX,0.00513 µM
same,GI50,Malme-3M,0.0183 µM
same,GI50,NCI-H460 [7],0.00383 µM
same,GI50,MDA-MB-435,0.0277 µM
same,Activity,NCI-H460 [8],53.65%
same,GI50,UO-31,0.00515 µM
same,Activity,NCI-H460 [9],45.71%
same,Activity,NCI-H460 [10],100%
same,GI50,MDA-MB-231,0.0339 µM
same,GI50,LOX IMVI,0.0118 µM
same,GI50,OVCAR-4,0.0189 µM
same,GI50,MCF7,0.00589 µM
same,GI50,NCI-H322M,0.00778 µM
same,GI50,NCI-H226,0.0193 µM
same,GI50,U-251,0.00257 µM
same,GI50,SK-MEL-5,0.00544 µM
